According to patent publication US8623885B2, “Fused tricyclic dual inhibitors of CDK 4/6 and FLT3” (Amgen Inc., priority 2011, dated 2014):

What was measured:
[1] = molecular target: FLT3 enzyme (GST-FLT3 fusion) (Homo sapiens (Human), UniProt P36888); experiment: FLT3 HTRF kinase assay; type: biochemical; details: 116 μM ATP
Protocol: The FLT3 inhibitory activity of the CDK4/6-FLT3 inhibitors was determined with a HTRF kinase assay. The FLT3 enzyme (GST-FLT3 fusion) was purchased from Carna Biosciences. An ULight-labeled synthetic peptide derived from human Janus kinase 1 (aa1015-1027, ULight-JAK1, PerkinElmer) was utilized as the phosphoacceptor substrate. The assay was conducted in a 384-well white OptiPlate (PerkinElmer). The 20 μL reaction mixture contained 50 nM ULight-JAK1, 116 μM ATP, 0.0385 ng/μL FLT3 and dilutions of test compounds in the kinase buffer (50 mM Hepes, pH 7.6, 1 mM EGTA, 10 mM MgCl2, 2 mM DTT, and 0.005% Tween 20). The reaction was allowed to proceed for 1 hour at room temperature and was stopped by adding 20 μL of 10 mM EDTA, 2 nM LANCE® Eu-W1024 anti-phospho-tyrosine antibody in LANCE® detection buffer (PerkinElmer). The plates were incubated at room temperature for 2 hours after addition of detection reagents and then read on an Envision multimode reader (PerkinElmer).
(§1) IC50 values of the compounds in the above assays were determined by non-linear regression analysis using Prism (GraphPad Software).

CDK4/Cyclin D1 = CDK4/Cyclin D1 (Homo sapiens (Human), UniProt P11802); experiment: CDK4 filtration kinase assay; type: biochemical; details: CDK4/Cyclin D1, Rb fragment substrate, [33P]-ATP filtration assay
Sequence of CDK4/Cyclin D1 (P11802 whole entry, the tested form may be a part): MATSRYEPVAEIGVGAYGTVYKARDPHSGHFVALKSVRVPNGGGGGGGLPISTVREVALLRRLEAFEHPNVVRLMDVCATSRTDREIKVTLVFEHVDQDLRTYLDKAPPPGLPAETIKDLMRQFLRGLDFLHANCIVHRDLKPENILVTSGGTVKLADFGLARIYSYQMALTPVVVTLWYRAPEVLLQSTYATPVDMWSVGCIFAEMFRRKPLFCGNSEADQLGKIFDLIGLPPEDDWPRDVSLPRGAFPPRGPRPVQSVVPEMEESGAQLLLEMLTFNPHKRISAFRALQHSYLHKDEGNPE
Sequence of CDK4/Cyclin D1 (P24385 whole entry partner, the tested form may be a part): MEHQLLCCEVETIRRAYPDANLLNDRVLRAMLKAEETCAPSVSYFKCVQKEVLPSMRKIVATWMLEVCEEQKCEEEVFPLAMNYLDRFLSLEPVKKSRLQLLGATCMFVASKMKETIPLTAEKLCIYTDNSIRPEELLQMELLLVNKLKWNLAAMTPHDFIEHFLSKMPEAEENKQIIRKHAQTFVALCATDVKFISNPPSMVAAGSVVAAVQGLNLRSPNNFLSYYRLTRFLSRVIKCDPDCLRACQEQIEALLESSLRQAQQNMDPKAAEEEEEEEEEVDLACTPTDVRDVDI
Protocol: The CDK4 and CDK1 inhibitory activity of the CDK4/6-FLT3 inhibitors was determined with a filtration kinase assay. The compounds, kinase and substrate diluted in the kinase buffer (20 mM Tris, pH7.4, 50 mM NaCl, 1 mM DTT, 0.1% BSA) were sequentially added to a 96-well Multiscreen HTS filtration plate (Millipore). The final 100 μL reaction mixture in each well contained 0.3 μg of CDK4/Cyclin D1 or CDK1/Cyclin B (Cell Signaling Technology), 1 μg of Rb fragment (aa773-928, Millipore) for the CDK4 assay or 5 μg of histone H1 for the CDK1 assay and 1 μCi of [^33P]-ATP. The mixture was incubated at room temperature for 1 hour. The proteins in the reaction were then precipitated and washed with cold TCA solution using an aspiration/filtration vacuum system. The plates were dried at room temperature, and the retained radioactivity was measured by scintillation counting.
as §1

MOLM13 cells = experiment: [14C]-thymidine incorporation cell proliferation assay, MOLM13; type: cell-based, human; details: Homo sapiens, MOLM-13, 72 hour incubation
Protocol: The cell proliferation inhibition potency of the CDK4/6-FLT3 inhibitors was determined by using a [^14C]-thymidine incorporation assay. Exponentially growing cells (MOLM-13, Colo-205, etc.) were seeded in a 96-well Cytostar T plate (GE Healthcare Biosciences) at a density of 5×10^3 cells/well and incubated overnight. Serially diluted compounds and 0.1 μCi of [^14C]-thymidine (GE Healthcare Biosciences) were added to each well on the following day. After 72 hour incubation, isotope incorporation was determined with a β plate counter (Wallac). MOLM13 is a human AML tumor cell line expressing FLT3, FLT3^ITD and wild type Rb.
as §1

Sequence of FLT3 enzyme (GST-FLT3 fusion) (P36888 27-993): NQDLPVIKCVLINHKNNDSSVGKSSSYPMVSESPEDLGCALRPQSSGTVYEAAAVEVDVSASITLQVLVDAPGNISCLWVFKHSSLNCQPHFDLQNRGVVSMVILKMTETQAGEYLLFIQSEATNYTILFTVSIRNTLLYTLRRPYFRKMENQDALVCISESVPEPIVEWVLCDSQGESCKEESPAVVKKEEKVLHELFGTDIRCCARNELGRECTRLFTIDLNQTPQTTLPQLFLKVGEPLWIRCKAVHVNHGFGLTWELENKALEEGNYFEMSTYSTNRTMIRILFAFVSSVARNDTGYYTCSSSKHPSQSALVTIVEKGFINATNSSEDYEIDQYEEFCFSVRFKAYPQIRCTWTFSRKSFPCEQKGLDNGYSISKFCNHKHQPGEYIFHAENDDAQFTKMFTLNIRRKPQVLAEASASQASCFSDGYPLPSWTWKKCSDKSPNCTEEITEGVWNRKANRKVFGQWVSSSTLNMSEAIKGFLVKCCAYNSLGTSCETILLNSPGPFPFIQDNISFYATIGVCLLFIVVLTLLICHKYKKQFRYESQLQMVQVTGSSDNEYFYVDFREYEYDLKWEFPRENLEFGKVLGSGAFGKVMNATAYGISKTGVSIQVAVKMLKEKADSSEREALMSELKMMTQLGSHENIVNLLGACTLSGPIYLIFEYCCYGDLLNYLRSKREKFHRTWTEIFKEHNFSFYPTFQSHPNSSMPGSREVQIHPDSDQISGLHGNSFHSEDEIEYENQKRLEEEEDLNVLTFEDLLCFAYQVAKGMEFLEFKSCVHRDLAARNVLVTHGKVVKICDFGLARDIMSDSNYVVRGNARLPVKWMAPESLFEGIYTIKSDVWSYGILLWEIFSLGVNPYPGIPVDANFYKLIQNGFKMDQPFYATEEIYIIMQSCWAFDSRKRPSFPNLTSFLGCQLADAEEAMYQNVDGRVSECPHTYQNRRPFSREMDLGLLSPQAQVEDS

IC50 [1]	IC50 (CDK4/Cyclin D1)	IC50 (MOLM13 cells)	Compound
2 nM	4.6 nM	21.1 nM	C[C@H]1CC[C@H](n2c3cnccc3c3cnc(Nc4ccc5c(n4)CCN(CCCO)C5)nc32)CC1 [Example 4, 3-(2-((9-((1r,4r)-4-Methylcyclohexyl)-9H-pyrido[4′,3′:4,5]pyrrolo[2,3-d]pyrimidin-2-yl)amino)-7,8-dihydro-1,6-naphthyridin-6(5H)-yl)propan-1-ol]
3.3 nM	120 nM	46 nM	C[C@H]1CC[C@H](n2c3cnccc3c3cnc(Nc4ccc5c(n4)CCN(C(=O)C(=O)O)C5)nc32)CC1 [Example 6, 2-(2-((9-((1r,4r)-4-Methylcyclohexyl)-9H-pyrido[4′,3′:4,5]pyrrolo[2,3-d]pyrimidin-2-yl)amino)-7,8-dihydro-1,6-naphthyridin-6(5H)-yl)-2-oxoacetic acid]
36.1 nM	2.4 nM	9.1 nM	CS(=O)(=O)CCN1CCc2nc(Nc3ncc4c5ccncc5n([C@H]5CC[C@H](C)CC5)c4n3)ccc2C1 [Example 8, 9-((1r,4r)-4-Methylcyclohexyl)-N-(6-(2-(methylsulfonyl)ethyl)-5,6,7,8-tetrahydro-1,6-naphthyridin-2-yl)-9H-pyrido[4′,3′:4,5]pyrrolo[2,3-d]pyrimidin-2-amine]
1.7 nM	10.5 nM	33.2 nM	COCCN1CCc2nc(Nc3ncc4c5ccncc5n([C@H]5CC[C@H](C)CC5)c4n3)ccc2C1 [Example 10, N-(6-(2-Methoxyethyl)-5,6,7,8-tetrahydro-1,6-naphthyridin-2-yl)-9-((1r,4r)-4-methylcyclohexyl)-9H-pyrido[4′,3′:4,5]pyrrolo[2,3-d]pyrimidin-2-amine]
73.7 nM	257 nM	> 3000 nM	C[C@H]1CC[C@H](n2c3cnccc3c3cnc(Nc4cc5c(cn4)CCNC5)nc32)CC1 [Example 11, 9-((1r,4r)-4-Methylcyclohexyl)-N-(5,6,7,8-tetrahydro-2,6-naphthyridin-3-yl)-9H-pyrido[4′,3′:4,5]pyrrolo[2,3-d]pyrimidin-2-amine]
2.7 nM	18.4 nM	10.8 nM	C[C@H]1CC[C@H](n2c3cnccc3c3cnc(Nc4cc5c(cn4)CCN(CCO)C5)nc32)CC1 [Example 12, 2-(7-((9-((1r,4r)-4-Methylcyclohexyl)-9H-pyrido[4′,3′:4,5]pyrrolo[2,3-d]pyrimidin-2-yl)amino)-3,4-dihydro-2,6-naphthyridin-2(1H)-yl)ethanol]
1.8 nM	31.3 nM	54.5 nM	CC1CNCc2ccc(Nc3ncc4c5ccncc5n([C@H]5CC[C@H](C)CC5)c4n3)nc21 (stereo partly drawn) [Example 13, N-(8-Methyl-5,6,7,8-tetrahydro-1,6-naphthyridin-2-yl)-9-((1r,4r)-4-methylcyclohexyl)-9H-pyrido[4′,3′:4,5]pyrrolo[2,3-d]pyrimidin-2-amine]
3.2 nM	4.4 nM	10.6 nM	CC(=O)N1Cc2ccc(Nc3ncc4c5ccncc5n([C@H]5CC[C@H](C)CC5)c4n3)nc2C(C)C1 (stereo partly drawn) [Example 14, 1-(8-Methyl-2-((9-((1r,4r)-4-methylcyclohexyl)-9H-pyrido[4′,3′:4,5]pyrrolo[2,3-d]pyrimidin-2-yl)amino)-7,8-dihydro-1,6-naphthyridin-6(5H)-yl)ethanone]
3.1 nM	20.3 nM	29.5 nM	CC1CN(CCO)Cc2ccc(Nc3ncc4c5ccncc5n([C@H]5CC[C@H](C)CC5)c4n3)nc21 (stereo partly drawn) [Example 15, 2-(8-Methyl-2-((9-((1r,4r)-4-methylcyclohexyl)-9H-pyrido[4′,3′:4,5]pyrrolo[2,3-d]pyrimidin-2-yl)amino)-7,8-dihydro-1,6-naphthyridin-6(5H)-yl)ethanol]
1.4 nM	16.5 nM	23.9 nM	C[C@H]1CC[C@H](n2c3cnccc3c3cnc(Nc4ccc5c(n4)C(O)CNC5)nc32)CC1 (stereo partly drawn) [Example 16, 2-((9-((1r,4r)-4-Methylcyclohexyl)-9H-pyrido[4′,3′:4,5]pyrrolo[2,3-d]pyrimidin-2-yl)amino)-5,6,7,8-tetrahydro-1,6-naphthyridin-8-ol]
33 nM	1790 nM	204 nM	COc1cc2c3cnc(Nc4ccc5c(n4)CCNC5)nc3n([C@H]3CC[C@H](C)CC3)c2cn1 [Example 19, 6-Methoxy-9-((1r,4r)-4-methylcyclohexyl)-N-(5,6,7,8-tetrahydro-1,6-naphthyridin-2-yl)-9H-pyrido[4′,3′:4,5]pyrrolo[2,3-d]pyrimidin-2-amine]
144 nM	847 nM	208 nM	COc1cc2c3cnc(Nc4ccc5c(n4)CCN(C(=O)CO)C5)nc3n([C@H]3CC[C@H](C)CC3)c2cn1 [Example 20, 2-Hydroxy-1-(2-((6-methoxy-9-((1r,4r)-4-methylcyclohexyl)-9H-pyrido[4′,3′:4,5]-pyrrolo[2,3-d]pyrimidin-2-yl)amino)-7,8-dihydro-1,6-naphthyridin-6(5H)-yl)ethanone]
0.65 nM	36 nM	5.2 nM	O=C(CO)N1CCc2nc(Nc3ncc4c5ccncc5n(C5CCCC5)c4n3)ccc2C1 [Example 22, 1-(2-((9-Cyclopentyl-9H-pyrido[4′,3′:4,5]pyrrolo[2,3-d]pyrimidin-2-yl)amino)-7,8-dihydro-1,6-naphthyridin-6(5H)-yl)-2-hydroxyethanone]

Compound	IC50 [1]	IC50 (CDK4/Cyclin D1)	IC50 (MOLM13 cells)
C[C@H]1CC[C@H](n2c3cnccc3c3cnc(Nc4ccc5c(n4)CCN(CCF)C5)nc32)CC1 [Example 9, N-(6-(2-Fluoroethyl)-5,6,7,8-tetrahydro-1,6-naphthyridin-2-yl)-9-((1r,4r)-4-methylcyclohexyl)-9H-pyrido[4′,3′:4,5]pyrrolo[2,3-d]pyrimidin-2-amine]	3.4 nM	72.8 nM	64.9 nM
